Experimental data published in patent publication US20170056380A1, “Systems, Methods, Techniques, and Compounds in Research and Treatment of Portal Hypertension and other Conditions” (priority 2014, published 2017).
Entries after “also recorded” stand apart in the source; their conditions may differ.

How the values were obtained:
Type in all cases: cell-based, rat
[1] = system: NO production in sinusoidal endothelial cells; assay: NO measurement (nitrite in conditioned medium of sinusoidal endothelial cells)
Protocol: (§1) Cell isolation and culture. Sinusoidal endothelial cells were isolated from male Sprague-Dawley rats (450-500 g) (Harlan, Indianapolis, Ind.). In brief, after in situ perfusion of the liver with 20 mg/100 mg pronase (Roche Molecular Biochemicals, Indianapolis, Ind.), followed by collagenase (Worthington Biochemical, Lakewood, N.J.), dispersed cell suspensions were removed from a layered discontinuous density gradient of 8.2 and 15.6% Accudenz (Accurate Chemical and Scientific, Westbury, N.Y.), further purified by centrifugal elutriation (18 ml/min flow), and were grown in medium containing 20% serum (10% horse/calf). The purity of endothelial cells was documented by their uptake of fluorescently labeled di-l-acetoacetylated low-density lipoprotein as described (21). Only primary sinusoidal endothelial isolates of >95% purity were used for study. Experiments were performed with cells frorrr a minimum three different isolations (for all experiments).
(§2) Animal model of liver injury and portal hypedension. Liver injury and portal hypertension were induced by performing bile duct ligation in 450- to 500-gram male retired breeder Sprague-Dawley rats as described in Liu and 20- to 25-gram male BALB/c mice. Briefly, bile duct ligation was performed by surgical isolation and ligation of the common bile duct. This model creates a portal-based fibrogenic response and portal hypertension 10-14 days after surgery (Liu). For study of injured sinusoidal endothelial cells, we used the rat model of bile duct ligation (10-14 days postsurgery); for in vivo study (primarily to conserve the use of active compound), we used the mouse model of bile duct ligation (examining portal pressure 4 wk postsurgery). In sham-operated rats or mice, laparotomy without isolation and section of the bile duct was performed. Studies were approved by the local Institutional Animal Care and Use Committees. Portal pressure measurement. Portal hypertension was induced in male BALB/c mice by bile duct ligation as above. Cicletanine (5 mg·kg^−1·day^−1) or vehicle was given by gavage as a single daily dose for 10 days before portal pressure measurement as described in Liue. In brief, mice were anesthetized, and an intravenous catheter (Becton Dickinson Vascular Access, Sandy, Utah) was introduced in the portal vein and secured with a silk tie. A calibrated low-pressure transducer (Digi-Med, Louisville, Ky.) was connected to the portal vein catheter, and portal pressure was recorded continuously using the Digi-Med Integrator 200 System (Digi-bled).
NO measurement. To assess NO production, we analyzed the release of nitrite, the stable breakdown product of NO, using a nitrite/nitrate assay kit (Cayman Chemicals, Ann Arbor, Mich.), following the manufacturer's instructions. Briefly, conditioned medium from sinusoidal endothelial cells with or without cicletanine treatment were loaded on a 96-well plate and mixed with both enzyme cofactor and nitrate reductase. After incubation at room temperature for 3 h, 100 μl Griess reagent mix were added to each well. After 10 more minutes at room temperature, the absorbance of each well was determined on a microplate reader at 540 nm, and the nitrite concentrations were deduced from a standard curve.

protein kinase G (PKG) = assay: Phospho-VASP immunoblotting for PKG activity in stellate cells alone or cocultured with sinusoidal endothelial cells
Protocol: (§3) For coculture experiments, freshly isolated stellate cells and freshly isolated sinusoidal endothelial cells were isolated separately and mixed together on collagen-coated plates and cultured for 5 days. Sinusoidal endothelial cells were plated at a density of 200,000 cells/cm2, and stellate cells were at a density of 65,000 cells/cm2.
(§4) Immunoblotting, Immunoblotting was performed by using specified primary antibodies, including anti-eNOS antibody (1:1,000; BD Transduction Laboratories, San Jose, Calif.), anti-phospho-eNOS-Ser^1177 (1:1,000; BD Transduction Laboratories or Cell Signaling Technology), anti-phospho-Akt, anti-Akt (Cell Signaling Technology, Beverly, Mass.), and horseradish peroxidase-conjugated secondary antibody. Specific signals were visualized using enhanced chemiluminescence as per the manufacturer's instructions and were scanned and quantitated with standard software.

protein kinase B (Akt) = assay: Akt phosphorylation (Ser473) and total Akt by immunoblotting in sinusoidal endothelial cells
Protocol: as §1, §4
Animal model of liver injury and portal hypedension. Liver injury and portal hypertension were induced by performing bile duct ligation in 450- to 500-gram male retired breeder Sprague-Dawley rats as described in Liu and 20- to 25-gram male BALB/c mice. Briefly, bile duct ligation was performed by surgical isolation and ligation of the common bile duct. […] A calibrated low-pressure transducer (Digi-Med, Louisville, Ky.) was connected to the portal vein catheter, and portal pressure was recorded continuously using the Digi-Med Integrator 200 System (Digi-bled).

hepatic stellate cells = assay: Collagen lattice assay (ET-1 stimulated stellate cell contraction, coculture with sinusoidal endothelial cells); settings: 50 or 100 nM 2 h, then ET-1 10 nM; coculture on collagen lattices
Protocol: as §3
Collagen lattice assay. Contraction of hepatic stellate cells was performed as previously described with minor modifications (25). Briefly, individual wells of a 24-well culture dish were incubated with PBS containing 1% BSA (500 μl/well) for 1 h at 37° C. and then washed two times with PBS and allowed to air dry. Collagen gels were prepared by mixing 60% type I tail collagen (Upstate Laboratories), 10% 10×MEM (GIBCO), 10% 0.2 HEPES, and 20% DMEM (GIBCO) to make a final concentration of collagen of 2.4 mg/ml. The solution was added to the culture wells and incubated for 1 h at 37° C., and hepatic stellate cells and sinusoidal endothelial cells were isolated separately from normal rat livers and cocultured (each at a density of 100,000 cells/lattice) on collagen lattices for 5 days. Cells were changed to serum-free medium overnight, then exposed to cicletanine, and then stimulated with endothelin-1 (ET-1, 10 nM). Collagen lattices were released from their substrata, and gel contraction was measured from 0 to 30 min.

eNOS = eNOS phosphorylation (Ser1177) and total eNOS by immunoblotting in sinusoidal endothelial cells
Protocol: as §1, §4, §2

[2] = sinusoidal endothelial cells injured by bile duct ligation, 2 h
[3] = cicletanine 100 nM, normal sinusoidal endothelial cells

SMILES: Cc1ncc2c(c1O)COC2c1ccc(Cl)cc1 (stereo not shown) [cicletanine, 3-(4-chlorophenyl)-1,3-dihydro-7-hydroxy-6-methylfuro-(3,4-c) pyridine]
- dose dependence of effect on nitrite production ([1]; 50 or 100 nM, 2 h): dose dependent
- nitrite levels in conditioned medium ([1]; 2 h exposure, normal sinusoidal endothelial cells): significantly increased
- nitrite production ([1]; cells transduced with adenovirus 24 h, then cicletanine 100 nM 2 h): stimulated
- time at which nitrite levels started to increase ([1]; cicletanine 100 nM, 0-4 h): 30 min
- nitrite production [1, 2]: increase
- VASP phosphorylation (protein kinase G (PKG); stellate cells alone): did not alter
- VASP phosphorylation (protein kinase G (PKG); stellate cells cocultured with sinusoidal endothelial cells): stimulated
- Akt phosphorylation at Ser473 (protein kinase B (Akt); 50 or 100 nM, normal sinusoidal endothelial cells): increased
- total Akt expression (protein kinase B (Akt); normal sinusoidal endothelial cells): without a change
- Akt phosphorylation (protein kinase B (Akt); [2]): restored Akt phosphorylation to above normal levels
- stellate cell contraction (hepatic stellate cells): inhibited stellate cell contraction in a dose-dependent manner
- phosphorylation of eNOS, dose dependence (eNOS; 50 or 100 nM, 2 h, normal sinusoidal endothelial cells): increased in a dose-dependent manner
- time after exposure of greatest eNOS phosphorylation (eNOS; cicletanine 100 nM, 0-4 h): 1 h
- eNOS phosphorylation at Ser1177 (eNOS; [3]): stimulated; also recorded: increased
- total eNOS expression (eNOS; [3]): unchanged
- eNOS phosphorylation (eNOS; [2]): restored eNOS phosphorylation to above basal levels
